Data on one substance can be found in US7935525B2, “Inhibition of ATF2 activity to treat cancer” (Mount Sinai School of Medicine, priority 2001, dated 2011).

No end group written: not given here.

Assay [1] deals with ATF2/c-Jun transcriptional activity. As to the kind of experiment: Jun2-Luciferase reporter in SW1 clones. It is filed as cell-based, mouse. The procedure:
Transient transfection and transcriptional analysis. Mouse melanoma tumors grown in culture were transfected with control vector or peptide II expressing luciferase or β-galactosidase constructs (Bhoumik et al., Clin. Cancer Res. 2001; 7(2):331-42). Transient transfection of different reporter constructs (0.5 cg) with expression vectors and pCMV-Cgal (0.25 Cg) into 5×10^5 melanoma cells was performed using Lipofectamine™ (Life Technologies-BRL). Transfection of the Jun2-luciferase construct permitted us to monitor activity of ATF2 and c-Jun. Jun2-Luc and TRE-Luc constructs were previously described (van Dam H., et al., EMBO J. 1993; 12:479-487; and van Dam H., et al., EMBO J. 1995; 14:1798-1811). Luciferase activity was determined using the Luciferase assay system (Promega®, Madison, Wis.) and normalized on the basis of β-galactosidase (β-Gal) levels in transfected cells. Proteins were prepared for β-Gal and Luciferase analysis at the selected time points after transfection.
Background: Reporter assays use an easily measured gene product as a stand-in for the process of interest.

Assay [2] relates to SW1 tumors. As to the kind of experiment: Doxycycline-inducible peptide expression in existing SW1 tumors. In kind it is in vivo, C3H mice. The text has this:
Constructs. ATF2 peptides were cloned into HA-penetratin pcDNA3 vector as described above. For the doxycycline inducible system peptide II was cloned in frame with HA and Penetratin into SacII and XbaI sites of the PUHD10-3 vector (Gossen M., et al., Proc. Natl. Acad. Sci. USA. 1992, 89(12):5547-51). The PeF1PrtTA vector (Gopalkrishnan R. V., et al., Nucleic Acids Res. 1999; 27(24):4775-82) places the rtTA gene under transcriptional control of the human EF-10 promoter. Replication deficient adenovirus expressing peptide II was generated by subcloning the ATF2 peptide cDNA into the corresponding adenovirus vector as previously described (Chen S. H., et al., Proc. Natl. Acad. Sci. USA 1994; 91(8):3054-7).
Derivation of stable cell lines. Selection of clones stably expressing the rtTA construct was carried out in SW-1 cells in the presence of […] of G418. After the selection period 12 single colonies were picked, expanded and analyzed for activity by assaying for Luciferase activity (Gopalkrishnan R. V., et al., Nucleic Acids Res. 1999; 27(24):4775-82). […] The positive clone, which expresses the rtTA cDNA, was contransfected with PUHDI0-3 peptide II and Pbabe Puro vectors that allow one to establish inducible expression of the respective genes (Gopalkrishnan et al., supra) and single clones were selected with […] of Puromycin. Positive clones were selected by Western blotting.
Tumor growth and metastasis evaluation in vivo. Cell lines established in culture to constitutively or inducibly express the peptide were injected into mice subcutaneously (S.C.). LU1205, FEMX and SW-1 cells that expressed control or peptide II were trypsinized, resuspended in PBS and injected SC (1×10^6) into 6-7 week old mice in the lower flank. When the tumor reached the size of about 50 mm^3, 5 μM of SB203580 was injected into four areas of the LU1205 tumors every 4 days during a 2-week period. For FEMX tumors UCN-01 (2.5 mg/kg) was fed by gavage twice a day, three times per week for a total of 2 weeks. Tumor growth was monitored every two days. […]

Assay [3] deals with Fas promoter. As to the kind of experiment: Fas promoter activity (-460 Fas promoter region). In kind it is cell-based, human. The following applies: peptide-expressing LU1205.
Assay [4] deals with Fas protein. As to the kind of experiment: Western blot of overall Fas protein in melanoma cells. It is filed as cell-based. The note with it: peptide-expressing melanoma cells.
Assay [5] relates to ATF2 target sequence (c-Jun promoter motif TGACACTA). The assay is described as follows: Electrophoretic mobility shift assay with labeled AP1 oligonucleotide. It is filed as binding, mouse. The following applies: control vs peptide-expressing SW1 cells. The procedure:
(§1) Electrophoretic mobility shift assays were performed as described. (Ivanov and Ronada, J Biol Chem 1999; 274(20):14079-89). GST binding assays were performed with GST-peptide II as described (Adler et al., Proc Natl Acad Sci USA 1995; 92 10585-9). SW1 cells expressing control vector or peptide II were subjected to FACS analysis following their incubation with antibodies to the cell surface receptor of FAS as described above.
Background: Mobility shift assays separate free from complexed probe on a gel.

Assay [6] deals with FAS. As to the kind of experiment: Cell surface FAS receptor by FACS in SW1 cells. In kind it is cell-based, mouse. The following applies: peptide-expressing SW1 vs control. The procedure:
as §1
In general terms: A flow cytometer gives signals particle by particle.

Assay [7] concerns SW1 melanoma tumors. The assay is described as follows: Growth and metastasis of SW1 tumors constitutively expressing peptide, C3H mice. In kind it is in vivo. As to the method: Tumor growth and metastasis evaluation in vivo. Cell lines established in culture to constitutively or inducibly express the peptide were injected into mice subcutaneously (S.C.). LU1205, FEMX and SW-1 cells that expressed control or peptide II were trypsinized, resuspended in PBS and injected SC (1×10^6) into 6-7 week old mice in the lower flank. When the tumor reached the size of about 50 mm^3, 5 μM of SB203580 was injected into four areas of the LU1205 tumors every 4 days during a 2-week period. For FEMX tumors UCN-01 (2.5 mg/kg) was fed by gavage twice a day, three times per week for a total of 2 weeks. Tumor growth was monitored every two days. SW-1 cells expressing peptide II under tet-inducible vector were injected SC (1×10^6). When tumors reached a size of about 50 mm^3, the mice received doxycycline in their drinking water ([…]) for a total of 2-4 weeks. At the end of the experiment, the tumors were excised and weighed. The lungs and other organs were subjected to histopathological examination to detect metastatic lesions.

Consider “peptide II: N-terminal polypeptide fragment of ATF2, amino acid residues 50-100, expressed from pcDNA3 with HA-penetratin tag (EMTLKFGPARNDSVIVADQTPTPTRFLKNCEEVGLFNELASPFENEFKKAS; also: HA-penetratin tag, position not given here; UniProt P15336 50-100, looked up, fragment)”, for which the “decrease in basal levels of ATF2 transcriptional activities” value in assay [1] (SW1 clones constitutively expressing peptide) is 5 fold. Further, the “ATF2 transcriptional activities in response to UV-treatment” value in assay [1] (SW1 clones, UV) was “decrease”. In assay [2] (doxycycline in drinking water from 90 mm^3, 32 days), the “decrease in the growth rate of tumors” value was ~2 fold. Also, the “reduction of tumor growth rate” value in assay [2] (inducible expression via doxycycline) is reported as 50%. In assay [2] (tumors from doxycycline-fed mice), the “degree of apoptosis in tumors (tunnel assay)” value was “increase in degree of apoptosis”. Moreover, the “Fas promoter mediated transcription” value in assay [3] is on record as “increase in Fas-mediated transcription”. Moreover, the “overall level of Fas protein” value in assay [4] is “increase in the overall level of Fas protein”. The “binding of nuclear extracts to the labeled AP1 oligonucleotide” value in assay [5] is “No significant changes”. In addition, the “level of FAS on the cells” value in assay [6] is given as “greatly increased”. Further, the tumor size in assay [7] (3-week period, control parent tumor 1800 mm^3) was 100 mm^3; in assay [7] (SC injection, analyzed three weeks later), “very small tumors”. In assay [7] (at 72 days), the average tumor size result is reported as “about 1200 mm^3”. Moreover, the “time for which tumor growth was completely blocked” value in assay [7] (constitutive expression) is “up to 35 days”. Moreover, the “apoptosis in tumors (tunnel assay)” value in assay [7] (excised SW1 tumors) is “substantially higher level of apoptosis”. The metastasis result in assay [7] (monitored up to 72 days) is given as “no metastasis was seen”.
